# Experimental data published in US20130289119A1, “FORMULATION COMPRISING ARGININE, USE AND PREPARATION THEREOF” (OSPEDALE SAN RAFFAELE S.R.L., priority 2010, published 2013).
# Method: In the present invention, the bio-availability and the vascular and metabolic effect of an oral administration of L-arginine (6.6 g) contained in the formulation of the invention (6 biscuits) compared either to the same food preparation (6 biscuits) prepared without the addition of L-arginine or to 6.6 g of powdered L-arginine were evaluated in healthy subjects.
# Seven healthy subjects (2M/5F) participated in the study.
# A complete medical history and a physical examination including height, weight, waist and hip circumferences and blood pressure measurements were taken for each subject. It was asked to all subjects to follow a 2000 kcal/die standard diet, according to LARN (Livelli di Assunzione Giornalieri Raccomandati di Nutrienti per la Popolazione Italiana) recommendations and to complete a 3 day food diary (two working days and one holiday day) before every test to obtain accurate information on short-term food intake. Food diaries were elaborated with a dedicated software to decode foods (Nutritionist Pro 2.5, Axial System, Stafford, Tex.), modified introducing the L-arginine contents, obtained from INRAN and USDA database, in more than 700 different foods items.
# The portion of 6 biscuits further contained a total amount of 21.9 g of carbohydrates (17.9 g of starch and 4.0 g of sugars), 3.6 g of proteins, 7.5 g of fats and 4.3 g of fibers. A fixed amount of 250 ml of natural water was taken with the food preparation. […] A fixed amount of 250 ml of natural water was taken with the food preparation. • The third test consisted in the oral administration of 6.6 g of powdered L-arginine diluted in 250 ml of natural water. The Study Design is represented in FIG. 2. After an overnight fast, a 20-gauge plastic cannula (Abbocath T; Abbocath, Ireland LTD, Sling, Ireland) was inserted in a large antecubital vein for intermittent sampling. Samples for the evaluation of glucose, insulin, NOx and L-arginine levels were evaluated at 0, 30, 60, 90, 120, 180 and 240 minutes. c-GMP levels were evaluated at 0, 60, 120, 180 and 240 minutes.
# Basal blood pressure was taken in supine position after 10 min of rest, and the mean of two measurements was used as the value, after that blood pressure was also taken at time 0, 120, 180 and 240 minutes. Forearm blood flow (FBF) was measured by strain-gauge venous occlusion plethysmography. Before any measurement was taken, the hand circulation was occluded using a wrist cuff inflated to 240 mmHg. Baseline blood flow was calculated as the mean of at least three values. Reactive hyperaemia (endothelium-dependent vasodilation) was measured after the release of a 5-min arterial occlusion, produced by inflating a standard sphygmomanometer cuff on the upper arm to 100 mmHg above systolic blood pressure (SBP). These measurement were performed at basal and every 60 min until the end of the study. Peripheral resistance was calculated as a ratio between mean blood pressure and the FBF.
# Glucose levels were measured with spectrophotometric methods adapted to Cobas MIRA using commercial kits (ABX, Montpellier, France). Insulin and proinsulin levels were assayed with ELISA kits (Insulin ELISA, Mercodia, Uppsala, Sweden and Proinsulin ELISA, DRG, Marburg, Germany). NOx levels were evaluated through the measurement of metabolic end products, i.e., nitrite and nitrate, using enzymatic catalysis coupled with Griess reaction. c-GMP levels were measured with radioimmunoassay kits (NEN Life Science Products, Boston, Mass., USA). L-Arginine were extracted from plasma samples by cation-exchange Strata SCX 100-mg columns (Phenomenex) and assayed by high-performance liquid chromatography.
# [1] = healthy subjects, oral 6.6 g L-arginine
smiles,measurement,setting,value
"N=C(N)NCCC[C@H](N)C(=O)O [powdered L-Arginine, L-arginine]",Incremental area under the curve for L-Arginine (ΔAUC L-Arginine),"both, human, in vivo, po",15050 ± 1353 µmol/L
same,Percentage incremental increase of post-ischemic blood flow vs food preparation not containing L-Arginine,"healthy subjects, forearm plethysmography",significantly (p<0.02) increased
same,cGMP plasma levels vs food preparation not containing L-Arginine,[1],significantly (p<0.03) higher
same,nitric oxide (NOx) plasma levels vs food preparation not containing L-Arginine,[1],significantly (p<0.03) higher
same,ΔAUC NOx vs food product not containing L-Arginine,[1],significantly (p<0.04) increased
same,ΔAUC cGMP vs food product not containing L-Arginine,[1],significantly (p<0.04) increased
